Converted amounts (≈) assume the structure as drawn. “Also recorded” adds a separate entry of the source.
What was measured:
[1] = test system: A375 melanoma cells; experiment: Colony formation assay of A375 cells; assay type: cell-based, human
Protocol: FIG. 2 illustrates colony formation assay of A375 cells. Cells were treated with different drugs and colonies were counted after 7 days. The values represent the mean ±SEM of four independent experiments. D=DMSO (control); T=paclitaxel, 0.75 ng/ml; M=MRE 3008F20, 10 μM; C=CI-IB-MECA, 10 μM; TM=paclitaxel plus MRE 3008F20; TC=paclitaxel plus CI-IB-MECA treated cells. *P<0.01 TM versus T. Analysis was by ANOVA followed by Dunnett's test.;
Control plates received the same volume of DMSO alone. After 7 days of growth at 37° C. in humidified atmosphere containing 5% CO2, the cells were fixed with absolute methanol for 5′ and stained with 1/10 Giemsa/phosphate-buffered saline (PBS) staining solution for 10 minutes. Staining solution was removed and colonies of greater than 30 cells were scored as survivors. For each treatment, six individual wells were scored.
Colony formation assay experiments were performed on A375 melanoma cells treated with increasing concentration of paclitaxel (0.25-75 ng/ml). A3 stimulation is achieved with the selective agonist CI-IB-MECA while A3 blockade is obtained with the selective antagonist MRE 3008F20. […] (FIG. 2)

[2] = target: T1, P-gp drug efflux activity in A375 cells (Homo sapiens, UniProt P08183); experiment: Rhodamine 123 efflux assay, A375 cells; assay type: cell-based
T1 construct: endogenous in cells; host or cells: A375 human melanoma cells (ATCC)
Protocol: (§1) 5×10^5 cells from each subline were loaded with 50 ng/ml of rhodamine 123 for 30 minutes at 37° C. in medium. The cells were washed and resuspended in dye-staining agent free medium for 3 hours at 37° C. to allow rhodamine 123 efflux. The cells were then washed twice and the fluorescence of intracellular rhodamine 123 were analysed with Flow cytometer (residual fluorescence FRES). The fluorescence was compared with loaded cells maintained at 4° C. to prevent drug export (maximal fluorescence FMAX). […] Cells from each subline that were not being exposed to rhodamine 123 were used as negative controls.
(§2) Rhodamine 123 (Rh123) retention, a P-gp functional assay, was studied in all cell lines. This assay was performed by incubating cells with Rh123 and determining Rh123 accumulation by measuring its fluorescence. The maximum load of Rh123 (FMAX) was quantified at the end of treatment harvesting the cells and storing them at 4° C. to prevent any active Rh123 efflux . The P-gp drug efflux was allowed incubating Rh123-loaded cells in fresh new medium Rh123-free for 3 hours at 37° C. After this incubation, residual fluorescence (FRES) was measured and compared to FMAX.

[3] = test system: Jurkat cells; experiment: Flow cytometry (PI) G2/M accumulation and sub-G1 apoptosis, Jurkat; assay type: cell-based, human; settings: MRE3008F20 10 μM
Protocol: (§3) A375 and NCTC2544 adherent cells were trypsinized, mixed with floating cells, washed with PBS and permeabilised in 70% (vol/vol) ethanol/PBS solution at 4° C. for at least 24 hours. Jurkat, HeL023 and PBMC cells were centrifuged for 10 minutes at 1000×g. The cell pellet was then resuspended and permeabilised in 70% (vol/vol) ethanol/PBS solution at 4° C. for at least 24 hours. The cells were washed with PBS and the DNA was stained with a PBS solution, containing 20 μg/ml of propidium iodide and 100 μg/ml of RNAse, at room temperature for 30 minutes. Cells were analysed by FACScan (Becton-Dickinson) and the content of DNA was evaluated by the Cell-LISYS program (Becton-Dickinson). Cell distribution among cell cycle phases and apoptotic cells was evaluated as previously described (Secchiero et al., 2001). Briefly, the cell cycle distribution is shown as the percentage of cells containing 2n (G1 phase), 4n (G2 and M phases), 4n>x>2n. DNA amount (S phase) judged by propidium iodide staining. The apoptotic population is the percentage of cells with DNA content lower than 2n.
(§4) To verify the role of A3 receptor antagonists on paclitaxel and vindesine mediated alteration of cell proliferation and apoptosis, testing was performed with additional cell lines. […] Experimental conditions are similar to those for the A375 cell testing.

[4] = test system: human melanoma A375 cell line; experiment: MTT growth inhibitory assay, A375; assay type: cell-based
Protocol: (§5) One of the growth inhibitory assays is the MTT assay. Cells (1000-1500 cells/well) are seeded in a 96-well micro culture plate in a total volume of 100 μl/well. After overnight incubation in a humidified incubator at 37° C. with 5% CO2-95% air, chemotherapeutic drug solutions diluted with culture medium at various concentrations are added in the amount of 100 μl to each well. The plates are placed in a humidified incubator at 37° C. with 5% CO2-95% air for 7-10 days. The plates are then centrifuged briefly and 100 μl of the growth medium is removed. Cell cultures are incubated with 50 μl of MTT [3-(4,5-dimethylthiazol-2-yl)-2,5-diphenyl-tetrazolium bromide] reagent (1 mg/ml in Dulbecco's phosphate-buffered saline) for 4 hr at 37° C. The resultant purple formazan precipitate is solubilized with 200 μl of 0.04 N HCl in isopropanol. Absorbance is measured at a wavelength of 595 nm and at a reference wavelength of 655 nm using a Bio-Rad Model 3550 Microplate Reader. Preferably, all tests are run in duplicate for each dose level.
(§6) The EZED50 computer program estimates the concentration of agent that inhibits cell growth by 50% as compared to the control cells. This is termed the IC50 and is determined by curve fitting test data using the following four logistic equation. [formula]
(§7) Inhibitory assay testing is also used to determine enhanced therapeutic effects from combining A3 receptor antagonists with other tumor inhibiting agents. The inhibitory cell growth assays are run with and without selected concentrations of A3 receptor antagonists. An enhanced therapeutic effect is present when the IC50 of the tumor inhibiting agent is lower with the A3 receptor antagonist.
(§8) Quantitatively, the enhancement factor (EF) is calculated by dividing the IC50 value of the tumor inhibiting agent for a tumor cell line by the IC50 value of the agent with A3 receptor antagonist for the same cell line: [formula]

[5] = test system: human pancreatic cancer Panc-1; experiment: MTT growth inhibitory assay, Panc-1; assay type: cell-based
[6] = target: T2, P-gp drug efflux activity in HeL023 cells (Homo sapiens, UniProt P08183); experiment: Rhodamine 123 efflux assay, HeL023 cells; assay type: cell-based; settings: Rh123 efflux, concentrations of Table 11 (MRE3008F20 10 μM)
T2 construct: nearly all (100±1%) the cells expressing high level of functional P-gp; endogenous in cells; host or cells: HeL023 human erythroleukemia cells
Protocol: as §1, §2

[7] = test system: HeL023 cells; experiment: Flow cytometry (PI) G2/M accumulation and sub-G1 apoptosis, HeL023; assay type: cell-based, human; settings: MRE3008F20 10 μM
Protocol: as §3, §4

[8] = test system: human lung carcinoma SKMES; experiment: MTT growth inhibitory assay, SKMES; assay type: cell-based
Protocol: as §5, §6, §7, §8

[9] = test system: human colon carcinoma HT29 cell line; experiment: MTT growth inhibitory assay, HT29; assay type: cell-based
Protocol: as §5, §6, §7, §8

[10] = target: T3, rA1 adenosine receptor (Rattus norvegicus, UniProt P25099); experiment: Binding affinity at rA1 adenosine receptor
T3 sequence (P25099 1-326): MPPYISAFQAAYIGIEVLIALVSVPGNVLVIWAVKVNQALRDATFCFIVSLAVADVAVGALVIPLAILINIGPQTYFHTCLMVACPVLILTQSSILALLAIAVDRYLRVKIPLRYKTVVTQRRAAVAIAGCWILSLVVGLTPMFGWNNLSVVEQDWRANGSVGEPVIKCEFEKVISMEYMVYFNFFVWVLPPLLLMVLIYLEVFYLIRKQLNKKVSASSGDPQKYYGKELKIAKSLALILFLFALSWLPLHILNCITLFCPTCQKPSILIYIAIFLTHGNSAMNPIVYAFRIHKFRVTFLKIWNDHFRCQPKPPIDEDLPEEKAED

[11] = test system: NCTC2544 cells; experiment: Flow cytometry (PI) G2/M accumulation and sub-G1 apoptosis, NCTC2544; assay type: cell-based, human; settings: NCTC 2544; MRE3008F20 10 μM
Protocol: as §3, §4

[12] = test system: A375 cells; experiment: Flow cytometry (PI) G2/M accumulation and sub-G1 apoptosis, A375; assay type: cell-based, human
Protocol: as §3
Cell proliferation and apoptosis are quantified by flow cytometer analysis after propidium-iodide (PI) DNA staining.

[13] = test system: A375 cells; experiment: Metabolic (MEK/ERK/p38MAPK) inhibitor signalling study by flow cytometry, A375; assay type: cell-based, human; settings: U0126 30 μM; for prevention of MRE3008F20-induced accumulation in G2/M: MRE3008F20 10 μM

T1 sequence (P08183 whole entry): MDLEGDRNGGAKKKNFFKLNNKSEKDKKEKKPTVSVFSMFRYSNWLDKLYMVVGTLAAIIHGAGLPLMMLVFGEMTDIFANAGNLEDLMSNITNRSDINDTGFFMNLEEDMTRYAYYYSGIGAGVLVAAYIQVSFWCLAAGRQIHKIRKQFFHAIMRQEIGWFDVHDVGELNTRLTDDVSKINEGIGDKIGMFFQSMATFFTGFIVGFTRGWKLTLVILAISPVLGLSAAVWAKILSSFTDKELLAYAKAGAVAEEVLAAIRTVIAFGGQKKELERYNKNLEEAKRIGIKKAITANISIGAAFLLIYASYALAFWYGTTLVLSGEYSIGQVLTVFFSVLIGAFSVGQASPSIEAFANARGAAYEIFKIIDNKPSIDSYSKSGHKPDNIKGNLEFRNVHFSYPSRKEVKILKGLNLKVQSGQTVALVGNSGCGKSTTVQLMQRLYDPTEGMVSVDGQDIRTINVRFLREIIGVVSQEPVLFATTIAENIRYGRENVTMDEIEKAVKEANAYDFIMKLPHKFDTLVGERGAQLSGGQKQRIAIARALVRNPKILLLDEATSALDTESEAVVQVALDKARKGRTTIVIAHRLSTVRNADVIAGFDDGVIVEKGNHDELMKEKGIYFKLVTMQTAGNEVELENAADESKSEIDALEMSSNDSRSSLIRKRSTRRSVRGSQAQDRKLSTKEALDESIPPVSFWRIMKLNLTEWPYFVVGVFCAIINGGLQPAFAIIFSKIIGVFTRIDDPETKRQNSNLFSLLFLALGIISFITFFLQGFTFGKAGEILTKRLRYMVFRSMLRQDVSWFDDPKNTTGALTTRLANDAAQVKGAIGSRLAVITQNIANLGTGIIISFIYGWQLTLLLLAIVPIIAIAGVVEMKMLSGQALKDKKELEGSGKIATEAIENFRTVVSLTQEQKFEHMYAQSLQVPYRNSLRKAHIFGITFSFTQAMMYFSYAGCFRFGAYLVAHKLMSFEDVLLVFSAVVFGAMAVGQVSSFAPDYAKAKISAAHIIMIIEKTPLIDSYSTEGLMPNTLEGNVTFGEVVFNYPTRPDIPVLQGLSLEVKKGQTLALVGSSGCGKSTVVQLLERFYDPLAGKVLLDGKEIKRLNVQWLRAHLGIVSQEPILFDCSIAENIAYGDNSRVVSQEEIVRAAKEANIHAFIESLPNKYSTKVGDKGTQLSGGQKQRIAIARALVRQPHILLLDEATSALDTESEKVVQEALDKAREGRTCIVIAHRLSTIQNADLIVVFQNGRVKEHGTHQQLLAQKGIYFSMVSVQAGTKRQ
T2 sequence (P08183 whole entry): as above

For `CCCn1cc2c(nc(NC(=O)Nc3ccc(OC)cc3)n3nc(-c4ccco4)nc23)n1` [MRE3008F20], the “colony formation, % of DMSO control” value ([1]; 10 μM alone, 7 days) was 59%, the “colony formation predicted by geometrical combination” value ([1]; MRE 3008F20 10 μM plus paclitaxel 0.75 ng/ml) was 38% and the “blockade of P-gp mediated Rh123 transport (in words)” value ([2]; 10 μM, FRES comparable to FMAX) was “completely blockade of P-gp mediated Rh123 transport”. For the same compound, the “paclitaxel ECMAX with A3 antagonist” value [3] was 2.29 ± 0.31 ng/mL, the “Enhancement Factor for docetaxel” value ([4]; A375, A3 antagonist 1 μg/ml) was 63.3 and the “Enhancement Factor for paclitaxel” value ([4]; A375, A3 antagonist 1 μg/ml) was 7.1. The “Enhancement Factor for docetaxel” value ([4]; A375, A3 antagonist 3 μg/ml) was 6.9, the “Enhancement Factor for paclitaxel” value ([4]; A375, A3 antagonist 3 μg/ml) was 6.4 and the “Enhancement Factor for docetaxel” value ([4]; A375, A3 antagonist 10 μg/ml) was 5.3. For the same compound, the “Enhancement Factor for paclitaxel” value ([4]; A375, A3 antagonist 10 μg/ml, paclitaxel 0.0001-0.05 μg/ml) was 7.1, the “enhancement factor for paclitaxel at all three concentrations” value ([4]; A375, A3 antagonist 1, 3 and 10 μg/ml) was 6.4-7.1 and the IC50 ([4]; Homo sapiens, A-375, Human Melanoma A375, read-out: IC50 growth inhibition, agent used separately) was 91.3 ± 1.5 µg/mL (≈ 211 µM). For the same compound, the inhibition at 10 µg/mL ([4]; Homo sapiens, A-375, A375, 10 μg/ml, read-out: growth inhibition in the presence of A3 antagonist alone) was 30 to 45%, the IC50 ([5]; Human Pancreatic Cancer Panc-1, read-out: IC50 growth inhibition, agent used separately) was 15.8 ± 13.5 µg/mL (≈ 36.5 µM) and the “Enhancement Factor for docetaxel” value ([5]; Panc-1, A3 antagonist 1 μg/ml) was 1.8. For the same compound, the “Enhancement Factor for paclitaxel” value ([5]; Panc-1, A3 antagonist 1 μg/ml) was 1.9, the “inhibition of P-gp activity (in words)” value [6] was “near total P-gp inhibition; also recorded: strong inhibitors of P-gp activity” and the “paclitaxel ECMAX with A3 antagonist” value [7] was 3.19 ± 0.30 ng/mL. For the same compound, the “vindesine ECMAX with A3 antagonist” value [7] was 1.05 ± 0.09 nM, the IC50 ([8]; Human Lung Carcinoma SKMES, read-out: IC50 growth inhibition, agent used separately) was 19 ± 1.2 µg/mL (≈ 43.9 µM) and the “Enhancement Factor for docetaxel” value ([8]; SKMES, A3 antagonist 1 μg/ml) was 3.6. For the same compound, the “Enhancement Factor for irinotecan HCL” value ([8]; SKMES, A3 antagonist 1 μg/ml) was 2.1, the “Enhancement Factor for paclitaxel” value ([8]; SKMES, A3 antagonist 1 μg/ml) was 4.1 and the “Enhancement Factor for vinblastine” value ([8]; SKMES, A3 antagonist 1 μg/ml) was 1.2. For the same compound, the “Enhancement Factor for docetaxel” value ([9]; HT29, A3 antagonist 1 μg/ml) was 15.0, the “Enhancement Factor for doxorubicin” value ([9]; HT29, A3 antagonist 1 μg/ml) was 1.6 and the “Enhancement Factor for irinotecan HCl” value ([9]; HT29, A3 antagonist 1 μg/ml) was 1.8. For the same compound, the “Enhancement Factor for paclitaxel” value ([9]; HT29, A3 antagonist 1 μg/ml) was 2.9, the IC50 ([9]; HT-29, Human Colon Carcinoma HT29, read-out: IC50 growth inhibition, agent used separately) was 39.4 ± 7.7 µg/mL (≈ 91.1 µM) and the Ki [10] was > 10 µM. For the same compound, the “paclitaxel ECMAX with A3 antagonist” value [11] was 2.55 ± 0.24 ng/mL, the “vindesine ECMAX with A3 antagonist” value [11] was 1.34 ± 0.15 nM and the “paclitaxel ECMAX with A3 antagonist” value ([12]; A375, MRE3008F20 10 μM) was 3.04 ± 0.32 ng/mL. For the same compound, the “vindesine ECMAX with A3 antagonist” value ([12]; A375, MRE3008F20 10 μM) was 1.66 ± 0.20 nM and the EC50 ([12]; Homo sapiens, A-375, read-out: SEC50 (dose inducing 50% of the enhancing activity to vindesine)) was 550 ± 60 nM.

With `N#CC(=C(/N)Sc1ccccc1N)/C(C#N)=C(\N)Sc1ccccc1N` [U0126] the “effect on MRE 3008F20 blockade of P-gp (in words)” value ([2]; U0126 30 μM for 30 minutes, then MRE3008F20 10 μM) was “failed to prevent MRE 3008F20 blockade of P-gp”, the “effect on G2/M accumulation rate of paclitaxel or vindesine alone (in words)” value ([13]; PD98059 20 μM, SB203580 1 μM) was “did not alter” and the “prevention of MRE3008F20-induced accumulation in G2/M” value ([13]; in presence of paclitaxel) was 23±5%. For the same compound, the “prevention of MRE3008F20-induced accumulation in G2/M” value ([13]; in presence of vindesine 1 nM) was 48±5% and the “reduction of apoptosis induced by paclitaxel” value ([13]; paclitaxel 25 ng/ml, PD98059 20 μM, SB203580 1 μM) was 73±10%.

— patent US20040067932A1 (priority 2002, published 2004)
